Here are results for 30 compounds from patent publication US12336981B2, “Compounds and compositions for the inhibition of NAMPT” (Valo Health, Inc., priority 2010, dated 2025).

Experiment [1] relates to A2780 cells. The experiment can be described thus: In-vitro cell proliferation assay (SRB), A2780 cells. The experiment is classed as cell-based. The conditions noted are these: Homo sapiens, A2780, 72 h, A2780 cells, 72 hours, read-out: A2780 IC50. A digest of the protocol:
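Viable cells measured by SRB staining after 6% TCA fixation, absorbance 570 nm. Media-only background subtracted; % inhibition derived at two compound concentrations.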

Experiment [2] deals with T1, NAMPT (Homo sapiens, UniProt P43490).
T1 construct: His tag; host or cells: E. coli
T1 sequence (P43490 whole entry): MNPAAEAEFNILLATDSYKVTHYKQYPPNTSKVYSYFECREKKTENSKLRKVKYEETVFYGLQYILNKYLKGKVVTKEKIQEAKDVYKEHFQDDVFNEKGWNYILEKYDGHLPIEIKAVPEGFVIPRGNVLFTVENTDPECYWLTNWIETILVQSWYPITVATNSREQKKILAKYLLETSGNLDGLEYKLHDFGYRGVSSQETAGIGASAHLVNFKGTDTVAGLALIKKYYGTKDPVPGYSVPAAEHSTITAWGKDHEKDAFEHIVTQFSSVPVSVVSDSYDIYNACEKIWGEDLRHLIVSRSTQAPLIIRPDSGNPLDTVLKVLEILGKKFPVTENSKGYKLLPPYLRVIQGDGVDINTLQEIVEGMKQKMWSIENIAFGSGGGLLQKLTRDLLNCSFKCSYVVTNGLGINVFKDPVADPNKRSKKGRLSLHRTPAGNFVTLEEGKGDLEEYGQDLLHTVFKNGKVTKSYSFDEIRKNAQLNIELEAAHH
Put plainly: Biochemical inhibition assay: NAMPT enzymatic reaction, NMN quantified by mass spectrometry. The settings on record: read-out: Biochem IC50. A digest of the protocol: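 Inhibition of E. coli-expressed His-tagged human NAMPT, measured as NMN formation by mass spectrometry after a 30 min room-temperature reaction containing 1 μM NAM, 100 μM PRPP and 2.5 mM ATP.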

Where two headings read alike, the source gives them in different places.

With `CC(C)Oc1ccccc1NS(=O)(=O)c1ccc(CNC(=O)c2cc3cnccc3[nH]2)cc1` [N-[(4-{[2-(propan-2-yloxy)phenyl]sulfamoyl}phenyl)methyl]-1H-pyrrolo[3,2-c]pyridine-2-carboxamide], the IC50 in experiment [1] (SRB assay) was 1 nM; in experiment [2] (NAMPT enzymatic reaction) it was 3 nM.
The like results for `O=C(NCc1ccc(NS(=O)(=O)c2ccccc2OC(F)(F)F)cc1)c1cc2cnccc2[nH]1` [N-[(4-{[2-(trifluoromethoxy)benzene]sulfonamido}phenyl)methyl]-1H-pyrrolo[3,2-c]pyridine-2-carboxamide] were, in that order, 1 nM and 3 nM.
Take `O=C(NCc1ccc(S(=O)(=O)c2ccccc2OC(F)(F)F)cc1)c1cnc2nccn2c1` [N-[(4-{[2-(trifluoromethoxy)benzene]sulfonyl}phenyl)methyl]imidazo[1,2-a]pyrimidine-6-carboxamide]: the IC50 is 11.5 nM in experiment [1] (SRB) and 2.4 nM in experiment [2] (NAMPT enzymatic assay).
For `O=C(NCc1ccc(S(=O)(=O)c2ccccc2OC(F)(F)F)cc1)c1cc2ccncc2s1` [N-[(4-{[2-(trifluoromethoxy)benzene]sulfonyl}phenyl)methyl]thieno[2,3-c]pyridine-2-carboxamide], the IC50 in experiment [1] (SRB assay) was 2.8 nM; in experiment [2] (NAMPT enzymatic reaction) it was 4 nM.
The like results for `O=C(NCc1ccc(S(=O)(=O)c2ccccc2C(F)(F)F)cc1)c1cc2cnccc2[nH]1` [N-[(4-{[2-(trifluoromethyl)benzene]sulfonyl}phenyl)methyl]-1H-pyrrolo[3,2-c]pyridine-2-carboxamide] were, in that order, 25 nM and 22 nM.
Regarding `O=C(NCc1ccc(S(=O)(=O)c2ccccc2C(F)(F)F)cc1)c1ccc2nccn2c1` [N-[(4-{[2-(trifluoromethyl)benzene]sulfonyl}phenyl)methyl]imidazo[1,2-a]pyridine-6-carboxamide], the IC50 is 57.9 nM in experiment [1] (SRB) and 34.1 nM in experiment [2] (NAMPT enzymatic assay).
On to `O=C(NCc1ccc(S(=O)(=O)c2ccccc2C(F)(F)F)cc1)c1cc2ccncc2s1` [N-[(4-{[2-(trifluoromethyl)benzene]sulfonyl}phenyl)methyl]thieno[2,3-c]pyridine-2-carboxamide], for which the results for the IC50 in experiment [1] (SRB assay) and in experiment [2] (NAMPT enzymatic reaction) were 26 nM and 13 nM, respectively.
On to `O=C(NCc1ccc(S(=O)(=O)c2cccc(C(F)(F)F)c2Cl)cc1)c1cnc2[nH]ncc2c1` [N-[(4-{[2-chloro-3-(trifluoromethyl)benzene]sulfonyl}phenyl)methyl]-1H-pyrazolo[3,4-b]pyridine-5-carboxamide], for which the IC50 is 38.4 nM in experiment [1] (SRB) and 36.5 nM in experiment [2] (NAMPT enzymatic assay).
The like results for `O=C(NCc1ccc(S(=O)(=O)c2ccc(C(F)(F)F)cc2Cl)cc1)c1cnc2[nH]ncc2c1` [N-[(4-{[2-chloro-4-(trifluoromethyl)benzene]sulfonyl}phenyl)methyl]-1H-pyrazolo[3,4-b]pyridine-5-carboxamide] were, in that order, 86.9 nM and 114 nM.
`O=C(NCc1ccc(S(=O)(=O)c2cc(OC(F)(F)F)ccc2Cl)cc1)c1cc2cnccc2[nH]1` [N-[(4-{[2-chloro-5-(trifluoromethoxy)benzene]sulfonyl}phenyl)methyl]-1H-pyrrolo[3,2-c]pyridine-2-carboxamide]: the IC50 in experiment [1] (SRB) is 12 nM; in experiment [2] (NAMPT enzymatic assay), 53.1 nM.
The like results for `CC(C)Oc1cccc(S(=O)(=O)c2ccc(CNC(=O)c3cnc4nccn4c3)cc2)c1F` [N-[(4-{[2-fluoro-3-(propan-2-yloxy)benzene]sulfonyl}phenyl)methyl]imidazo[1,2-a]pyrimidine-6-carboxamide] were, in that order, 7 nM and 1.8 nM.
Take `O=C(NCc1ccc(S(=O)(=O)c2ccc(-n3cccn3)cc2F)cc1)c1ccc2nccn2c1` [N-[(4-{[2-fluoro-4-(1H-pyrazol-1-yl)benzene]sulfonyl}phenyl)methyl]imidazo[1,2-a]pyridine-6-carboxamide]: the IC50 in experiment [1] (SRB) was 12.8 nM; in experiment [2] (NAMPT enzymatic assay), 8.44 nM.
As for `O=C(NCc1ccc(S(=O)(=O)c2ccc(-n3cccn3)cc2F)cc1)c1cc2ccncc2s1` [N-[(4-{[2-fluoro-4-(1H-pyrazol-1-yl)benzene]sulfonyl}phenyl)methyl]thieno[2,3-c]pyridine-2-carboxamide], the IC50 in experiment [1] (SRB assay) came to 8 nM; in experiment [2] (NAMPT enzymatic reaction), 6 nM.
Take `O=C(NCc1ccc(S(=O)(=O)c2ccc(C(F)(F)F)cc2F)cc1)c1cc2cnccc2[nH]1` [N-[(4-{[2-fluoro-4-(trifluoromethyl)benzene]sulfonyl}phenyl)methyl]-1H-pyrrolo[3,2-c]pyridine-2-carboxamide]: the IC50 was 28.1 nM in experiment [1] (SRB) and 80.2 nM in experiment [2] (NAMPT enzymatic assay).
For `COc1cc(-n2cccn2)ccc1S(=O)(=O)c1ccc(CNC(=O)c2ccc3nccn3c2)cc1` [N-[(4-{[2-methoxy-4-(1H-pyrazol-1-yl)benzene]sulfonyl}phenyl)methyl]imidazo[1,2-a]pyridine-6-carboxamide], in that order: 3.59 nM and 21 nM.
With `COc1cc(-n2cccn2)ccc1S(=O)(=O)c1ccc(CNC(=O)c2cc3ccncc3s2)cc1` [N-[(4-{[2-methoxy-4-(1H-pyrazol-1-yl)benzene]sulfonyl}phenyl)methyl]thieno[2,3-c]pyridine-2-carboxamide], the IC50 in experiment [1] (SRB assay) amounted to 2.6 nM; in experiment [2] (NAMPT enzymatic reaction) it was 5 nM.
For `COc1cc(C(F)(F)F)ccc1S(=O)(=O)c1ccc(CNC(=O)c2cc3cnccc3[nH]2)cc1` [N-[(4-{[2-methoxy-4-(trifluoromethyl)benzene]sulfonyl}phenyl)methyl]-1H-pyrrolo[3,2-c]pyridine-2-carboxamide], in that order: 5 nM and 22 nM.
In the case of `COc1cc(C(F)(F)F)ccc1S(=O)(=O)c1ccc(CNC(=O)c2ccc3nccn3c2)cc1` [N-[(4-{[2-methoxy-4-(trifluoromethyl)benzene]sulfonyl}phenyl)methyl]imidazo[1,2-a]pyridine-6-carboxamide], the results for the IC50 in experiment [1] (SRB) and in experiment [2] (NAMPT enzymatic assay) were 9.84 nM and 26.4 nM, respectively.
With `COc1cc(C(F)(F)F)ccc1S(=O)(=O)c1ccc(CNC(=O)c2cc3ccncc3s2)cc1` [N-[(4-{[2-methoxy-4-(trifluoromethyl)benzene]sulfonyl}phenyl)methyl]thieno[2,3-c]pyridine-2-carboxamide], the IC50 amounted to 7.5 nM in experiment [1] (SRB assay), 2.2 nM in experiment [1] (SRB), 10 nM in experiment [2] (NAMPT enzymatic assay) and 9 nM in experiment [2] (NAMPT enzymatic reaction).
Consider `COc1ccc(C(C)C)cc1S(=O)(=O)c1ccc(CNC(=O)c2cnc3[nH]ncc3c2)cc1` [N-[(4-{[2-methoxy-5-(propan-2-yl)benzene]sulfonyl}phenyl)methyl]-1H-pyrazolo[3,4-b]pyridine-5-carboxamide], for which the IC50 stood at 29.4 nM in experiment [1] (SRB) and 89.2 nM in experiment [2] (NAMPT enzymatic assay).
Regarding `COc1ccc(C(C)C)cc1S(=O)(=O)c1ccc(CNC(=O)c2cc3cnccc3[nH]2)cc1` [N-[(4-{[2-methoxy-5-(propan-2-yl)benzene]sulfonyl}phenyl)methyl]-1H-pyrrolo[3,2-c]pyridine-2-carboxamide], the IC50 is 12 nM in experiment [1] (SRB assay) and 61 nM in experiment [2] (NAMPT enzymatic reaction).
The like results for `COc1ccc(C(C)C)cc1S(=O)(=O)c1ccc(CNC(=O)c2cc3ccncc3s2)cc1` [N-[(4-{[2-methoxy-5-(propan-2-yl)benzene]sulfonyl}phenyl)methyl]thieno[2,3-c]pyridine-2-carboxamide] were, in that order, 6.2 nM and 9 nM.
The like results for `COc1ccc(C(F)(F)F)cc1NS(=O)(=O)c1ccc(CNC(=O)c2cc3cnccc3[nH]2)cc1` [N-[(4-{[2-methoxy-5-(trifluoromethyl)phenyl]sulfamoyl}phenyl)methyl]-1H-pyrrolo[3,2-c]pyridine-2-carboxamide] were, in that order, 1.6 nM and 0.5 nM.
The like results for `COc1cccc(OC(C)C)c1S(=O)(=O)c1ccc(CNC(=O)c2cc3cnccc3[nH]2)cc1` [N-[(4-{[2-methoxy-6-(propan-2-yloxy)benzene]sulfonyl}phenyl)methyl]-1H-pyrrolo[3,2-c]pyridine-2-carboxamide] were, in that order, 22 nM and 36 nM.
Consider `Cc1cc(-n2cccn2)ccc1S(=O)(=O)c1ccc(CNC(=O)c2cc3cnccc3[nH]2)cc1` [N-[(4-{[2-methyl-4-(1H-pyrazol-1-yl)benzene]sulfonyl}phenyl)methyl]-1H-pyrrolo[3,2-c]pyridine-2-carboxamide], for which the IC50 in experiment [1] (SRB assay) and in experiment [2] (NAMPT enzymatic reaction) was 4 nM each time.
With `Cc1cc(-n2cccn2)ccc1S(=O)(=O)c1ccc(CNC(=O)c2ccc3nccn3c2)cc1` [N-[(4-{[2-methyl-4-(1H-pyrazol-1-yl)benzene]sulfonyl}phenyl)methyl]imidazo[1,2-a]pyridine-6-carboxamide], the IC50 in experiment [1] (SRB) was 3.6 nM; in experiment [2] (NAMPT enzymatic assay), 7.99 nM.
For `Cc1cc(C(F)(F)F)ccc1S(=O)(=O)c1ccc(CNC(=O)c2cnc3[nH]ncc3c2)cc1` [N-[(4-{[2-methyl-4-(trifluoromethyl)benzene]sulfonyl}phenyl)methyl]-1H-pyrazolo[3,4-b]pyridine-5-carboxamide], in that order: 74.6 nM and 100 to 1000 nM.
For the compound `O=C(NCc1ccc(S(=O)(=O)c2cccc(-n3cccn3)c2)cc1)c1cc2cnccc2[nH]1` [N-[(4-{[3-(1H-pyrazol-1-yl)benzene]sulfonyl}phenyl)methyl]-1H-pyrrolo[3,2-c]pyridine-2-carboxamide], the IC50 in experiment [1] (SRB) turned out to be 7.4 nM; in experiment [2] (NAMPT enzymatic assay), 9.7 nM.
For `O=C(NCc1ccc(S(=O)(=O)c2cccc(-n3cccn3)c2)cc1)c1cc2ccncc2s1` [N-[(4-{[3-(1H-pyrazol-1-yl)benzene]sulfonyl}phenyl)methyl]thieno[2,3-c]pyridine-2-carboxamide], in that order: 0.1 nM and 1.5 nM.
`O=C(NCc1ccc(S(=O)(=O)c2cccc(OCC(F)(F)F)c2)cc1)c1cc2ccncc2o1` [N-[(4-{[3-(2,2,2-trifluoroethoxy)benzene]sulfonyl}phenyl)methyl]furo[2,3-c]pyridine-2-carboxamide]: the IC50 in experiment [1] (SRB) is 12 nM; in experiment [2] (NAMPT enzymatic assay) it was 7.2 nM.

One may read the IC50 as the concentration needed to halve the response being measured.
